According to patent US20170333450A1, “COMPOSITIONS AND METHODS FOR TREATING HIV-ASSOCIATED COGNITIVE DYSFUNCTION” (The Regents of the University of California, priority 2014, published 2017):
“Also recorded” adds a separate entry of the source.

Legend:
primary rodent neurons = experiment: Neurotoxicity of MDM culture supernatants on cultured primary rodent neurons (MAP-2 expression); assay type: cell-based; conditions: supernatants of HIV infected MDM on primary rodent neurons, FIG. 1, Panel C
Excerpt: (§1) FIG. 1 includes three panels identified as panels A, B, and C showing the results of preclinical testing of Bardoxolone in human monocyte-derived macrophages (MDM) and primary rodent neurons. […] “Mock 1” and “Mock 2” correspond to supernatant from untreated, uninfected macrophages run in parallel with treated macrophages. “Vehicle 1” and “Vehicle 2” correspond to supernatant from macrophages that received 0.05% DMSO and no additional drug. […] This effect is seen at Bardoxolone concentrations as low as 5 nM.
In addition, pre-treated neurons were exposed to the supernatants. Briefly, MDM culture supernatants are applied to cultured primary rodent neurons to test for MDM culture supernatant neurotoxicity. […] This is an indication of neuronal health.

HIV = HIV replication in MDM by reverse transcriptase (RT) activity in the culture supernatant; assay type: cell-based; conditions: FIG. 1, Panel B
Excerpt: as §1
(§2) Monocyte-derived macrophages (MDM), obtained from uninfected donors, were pretreated with Bardoxolone (5 nM or 50 nM), Tempol, 4-hydroxy-2,2,6,6-tetramethylpiperidin-1-oxyl, (500 nM or 5 μM) or control (0.05% DMSO) for 24 hours prior to HIV infection. […] See FIG. 1, Panel A. This enhanced HO-1 expression decreases release of soluble neurotoxins from infected MDM. “Mock 1” and “Mock 2” correspond to supernatant from untreated, uninfected macrophage run in parallel with treated macrophages. “Vehicle 1” and “Vehicle 2” correspond to supernatant from macrophages that received 0.05% DMSO and no additional drug. Final concentration of DMSO in all treated wells is 0.05%.
Viral replication was determined via reverse, transcriptase (RT) expression in the cell culture supernatant. The RT assay measured incorporation of ^32P dT into long chain poly rA.

heme-oxygenase-1 (HO-1) = experiment: HO-1 expression in HIV-infected and non-infected monocyte-derived macrophages (MDM) treated with test drug; assay type: cell-based, human; conditions: Bardoxolone 5 nM or 50 nM, FIG. 1, Panel A
Excerpt: as §1, §2

[1] = test system: HIV-infected U1 monocytes; experiment: Viral expression (p24 gag) in HIV-infected U1 monocytes after LPS stimulation; assay type: cell-based; conditions: 250 nM pre-treatment overnight, LPS activated; FIG. 2
Protocol: As such, methods for reducing viral replication may reduce risk for HAND. In another series of experiments, HIV-infected monocytes were exposed to a virus replication stimulus to determine if pretreatment with Bardoxolone inhibited viral replication. […] Here, a comparison of control cells with those pre-treated with either Tempol (1 μM) or Bardoxolone (250 nM) overnight was performed. The cells were then split into two conditions: LPS activated and non-LPS.

CC1(C)CC[C@]2(C(=O)O)CC[C@]3(C)[C@H](C(=O)C=C4[C@@]5(C)C=C(C#N)C(=O)C(C)(C)[C@@H]5CC[C@]43C)[C@@H]2C1 [Bardoxolone]
levels of MAP-2 in the neuron cultures (primary rodent neurons): maintenance or normal levels | neurotoxicity of the MDM cell culture supernatants (primary rodent neurons; compared to vehicle control and to Tempol): dramatically reduced | concentration at which reduction of HIV replication in MDM is seen (HIV; lowest concentration tested, RT activity): ≤ 5 nM | HIV reverse transcriptase (RT) activity in the culture supernatants (HIV replication in MDM) (HIV; pre-treatment 24 hours before HIV infection, 5 nM or 50 nM): reduced levels | expression of HO-1 in HIV-infected MDM (heme-oxygenase-1 (HO-1); 24 hours before HIV infection and throughout infection): enhanced expression | expression of HO-1 in non-infected MDM (heme-oxygenase-1 (HO-1)): enhanced expression | amount of viral expression (p24 gag) following stimulation [1]: reduced; also recorded: decreased
